Measured values as given in the Biogen ADME set (Fang et al. 2023).
Values after ≈ are worked out from the molar mass of the structure shown.

Settings: for aqueous solubility: pH 6.8

| SMILES | MDR1-MDCK efflux ratio | fraction unbound, human plasma | fraction unbound, rat plasma | intrinsic clearance, human liver microsomes [mL/min/kg] | intrinsic clearance, rat liver microsomes [mL/min/kg] | aqueous solubility [µg/mL] |
| --- | --- | --- | --- | --- | --- | --- |
| O=C(CCNC(=O)c1ccc(OC(F)(F)F)cc1)N[C@@H]1CCCc2ccccc21 | 3.14 | 0.0336 | 0.0427 | 154 | 797 | 4.6 (≈ 11.3 µM) |
| Cn1ncc2cc(-c3ccnc4[nH]ccc34)ccc21 | 0.608 | – | – | 117 | 689 | 4.67 (≈ 18.8 µM) |
| Cc1nc(N(C)C)cc(C2(C)CCNCC2)n1 | 17.7 | – | – | ≤ 4.74 | 18.4 | 45 (≈ 192 µM) |
| Cc1c(-c2ccccc2)oc2c(C(=O)NCCCN3CCCCC3)cccc2c1=O | 11 | – | – | 13.3 | 106 | 48.7 (≈ 120 µM) |
| COc1ccccc1C(=O)Nc1ccc2cc[nH]c2c1 | 0.247 | 0.032 | 0.0373 | 84.8 | 491 | 4.9 (≈ 18.4 µM) |
| Cc1cc(CNc2cc(C(=O)N(C)C)ccn2)sc1Br | 0.744 | – | – | 36.2 | 799 | 47.3 (≈ 134 µM) |
| CC(=O)N1CCCN(Cc2c(C)nn(C)c2Cl)CC1 | 3.19 | – | – | 11.6 | 43.7 | 41.1 (≈ 144 µM) |
| Nc1ncnc2ccc(-c3ccnc(F)c3)nc12 | 0.726 | – | – | ≤ 4.74 | ≤ 10.7 | – |
| CCc1[nH]nc(NC2CCN(C(C)C)CC2)c1C | 13.7 | – | – | ≤ 4.74 | 163 | – |
| COc1cc(CCNC2CCC3(CC2)OCCO3)ccc1F | 1 | – | – | 60.6 | 2240 | – |
| Cc1nn(C)c2nc(N3CCN(C)C[C@@H]3c3ccccc3)sc12 | 0.847 | – | – | 18.5 | 506 | 45 (≈ 137 µM) |
| COCc1ccc(-c2nc3c([nH]2)c(C)nn3C2CCCCC2)o1 | – | – | – | 51.8 | 485 | 38 (≈ 121 µM) |
| N#C/C(=C\c1ccc(O)c(O)c1)C(=O)NCc1ccccc1 | – | – | – | – | – | 42.5 (≈ 145 µM) |
| O=C(C1CC1c1ccc(F)cc1)N1CCC(n2c(=O)[nH]c3ccccc32)CC1 (centres undefined) | – | – | – | 14.7 | 233 | 47.8 (≈ 126 µM) |
| O=C(Nc1nc2ccccc2[nH]1)c1ccc(-c2ccccc2)cc1 | – | – | – | – | – | 0.5 (≈ 1.6 µM) |
| CN(Cc1cccc(Cl)c1Cl)Cc1cc(=O)n(C)c(=O)n1C | 0.829 | – | – | 191 | 2760 | – |
| Cc1ncc(CN2CC[C@@H](Nc3cncc(Cl)n3)[C@@H](C)C2)s1 | 0.974 | 0.16 | 0.184 | 75.6 | 637 | 52.8 (≈ 156 µM) |
| CCC(=O)NCCNC(=O)c1cc(-c2ccccc2)nc2ccccc12 | 15.1 | – | – | 13.3 | 80.3 | 18.7 (≈ 53.8 µM) |
| Cc1cc(Nc2cnccn2)cc(C2CCCN(CC(=O)N3CCCC3)C2)n1 (centres undefined) | 26.7 | 0.439 | 0.429 | 5.43 | 98.6 | – |

| SMILES | MDR1-MDCK efflux ratio | fraction unbound, human plasma | fraction unbound, rat plasma | intrinsic clearance, human liver microsomes [mL/min/kg] | intrinsic clearance, rat liver microsomes [mL/min/kg] | aqueous solubility [µg/mL] |
| --- | --- | --- | --- | --- | --- | --- |
| CCCc1nc2nc(C)c(NS(=O)(=O)c3ccc(C4CCCCC4)cc3)c(O)n2n1 | 50.3 | 0.00604 | 0.00729 | 169 | – | 43.9 (≈ 102 µM) |
| COc1ccc(CNc2ncc(-c3ccc4c(c3)OCO4)n2C)c(OC)c1 | 1.48 | – | – | 202 | 1590 | 42.5 (≈ 116 µM) |
| Cn1c(=O)n(C)c2cc(CN3CCC(c4ccc(Cc5ccccc5F)cn4)CC3)ccc21 | 6.24 | – | – | 84.8 | 108 | 56.6 (≈ 127 µM) |
| Cn1c(=O)c(C(=O)CSc2nc3ccccc3n2C)c(N)n(Cc2ccccc2)c1=O | 13 | – | – | 839 | 2400 | – |
| CCOc1ccc(CNC(=O)Cn2ccc3cc(S(=O)(=O)N4CCCC4)ccc32)cc1 | 11.9 | – | – | 423 | 2100 | – |
| CC(C)c1nc(O)c2nnn(C[C@@H]3CCCN(Cc4cccs4)C3)c2n1 | 22.3 | – | – | 32.1 | 999 | 49.1 (≈ 132 µM) |
| COc1cccc2c1OC(C)(C)[C@@H]1C[C@H]3CNCC[C@H]3O[C@@H]21 | 17.1 | – | – | ≤ 4.74 | 51.5 | 53.4 (≈ 176 µM) |
| O=S(=O)(c1cccc2c(O)nccc12)N1CCCNCC1 | 8.23 | 0.708 | 0.979 | ≤ 4.74 | 191 | – |
| Cc1cc(Nc2ccc(F)cn2)cc(C2CCN(C(=O)CCc3cccc(Cl)c3)C2)n1 (centres undefined) | 9.81 | – | – | 562 | 2270 | – |
| NC(=O)c1sc2cc(F)ccc2c1Cl | – | – | – | – | – | 0.5 (≈ 2.18 µM) |
| Cc1ccc(C)c(OCCC(=O)N2CCC(n3c(=O)[nH]c4ccccc43)CC2)c1 | – | – | – | 421 | 6460 | – |
| CNC(=O)Cc1noc(-c2ccc3ncccc3c2)n1 | – | – | – | ≤ 4.74 | 21.8 | – |
| Fc1ccc(F)c2c(NCc3ccc(N4CCOCC4)nc3)ccnc12 | 1.29 | – | – | 40.6 | 151 | 44.2 (≈ 124 µM) |
| Oc1cc(F)ccc1-c1nc(-c2ccncc2)no1 | – | – | – | 42.9 | 334 | – |
| COc1cc2nc(N)sc2cc1OC | 0.668 | – | – | ≤ 4.74 | 12.6 | 32.6 (≈ 155 µM) |
| CCCCOc1ccccc1-c1cc(C(=O)NCc2ccccc2C)[nH]n1 | 0.682 | – | – | – | – | 0.26 (≈ 0.715 µM) |
| Cc1ccc(NC(=O)c2cc(-c3ccccn3)nc3ccccc23)nc1 | – | – | – | – | – | 0.18 (≈ 0.529 µM) |
| O[C@@H]1C[C@@H](c2nc(-c3cccnc3)no2)N(CCCc2ccccc2)C1 | 1.19 | – | – | 108 | 1900 | 45.6 (≈ 130 µM) |
| CC(C)N1CCC(O)(c2ccccc2F)CC1 | 0.537 | – | – | ≤ 4.74 | 362 | 41.5 (≈ 175 µM) |

| SMILES | MDR1-MDCK efflux ratio | fraction unbound, human plasma | fraction unbound, rat plasma | intrinsic clearance, human liver microsomes [mL/min/kg] | intrinsic clearance, rat liver microsomes [mL/min/kg] | aqueous solubility [µg/mL] |
| --- | --- | --- | --- | --- | --- | --- |
| N#Cc1ccc(OCc2nnc(S)n2-c2ccccc2)cc1 | – | – | – | – | – | 45.7 (≈ 148 µM) |
| Cc1sc2nc(CN3CCOCC3)nc(N3CCN(c4ccncc4)CC3)c2c1C | 28.9 | – | – | 18.3 | 281 | 76.6 (≈ 180 µM) |
| COc1ccc(C(=O)N2CCCC2)cc1NC(C)C | 1.08 | – | – | 7.82 | 86.8 | 35.9 (≈ 137 µM) |
| CNCc1cc(N(C)C)nc(C2CCCN2C(=O)C2CCCC2)n1 (centres undefined) | 45.6 | – | – | ≤ 4.74 | 249 | – |
| C[C@@H]1Cc2ccccc2N1C(=O)Cn1nc(-c2cccc3ncccc23)oc1=O | 0.843 | 0.0168 | 0.0229 | 73.8 | 1080 | – |
| CC(C)CCn1ccc(NC2CCN(C(C)C)CC2)n1 | 3.58 | – | – | ≤ 4.74 | 152 | – |
| CCn1c(C)nc2cc(NC(=O)c3ccc(=O)n(CC(=O)N4CCCCC4)c3)ccc21 | 4.08 | – | – | ≤ 4.74 | 54.8 | 78.4 (≈ 186 µM) |
| NCCn1cc(NC(=O)c2ccccc2)cn1 | – | – | – | ≤ 4.74 | ≤ 10.7 | 79.1 (≈ 343 µM) |
| O=C(COc1ccc(F)cc1F)N1CCNC1=O | – | – | – | – | – | 97 (≈ 379 µM) |
| Nc1ncc(-c2cccc(C(F)(F)F)c2)c(C2CCCCN2C(=O)c2ccccc2)n1 (centres undefined) | 1.93 | 0.00903 | 0.0137 | 380 | 1510 | 25.1 (≈ 58.9 µM) |
| COC(=O)c1ccc(NC(=O)N(C)Cc2ccccc2CN2CCCC2)cc1 | 7.85 | – | – | 18.2 | 277 | 40.8 (≈ 107 µM) |
| COc1ccccc1-c1cc(C(C)(C)C)nc(-c2ncccn2)n1 | 1.98 | – | – | 22.7 | 169 | – |
| CC(C)(O)CNc1nc(Nc2ccnc(C(F)(F)F)c2)nc(-c2cccc(C(F)(F)F)n2)n1 | 24.8 | – | – | – | – | 0.14 (≈ 0.296 µM) |
| CCS(=O)(=O)N1CCC(C(=O)N(C)C2CCCCCCC2)CC1 | 1.57 | – | – | 133 | 857 | 51.4 (≈ 149 µM) |
| CN(C)[C@@H]1CN(C(=O)COc2ccccc2)C[C@H]1O | – | – | – | ≤ 4.74 | 17.6 | 83.3 (≈ 315 µM) |
| COCC(C)(C)C(=O)N1CCCC2(CCNCC2)CC1 | 4.31 | – | – | ≤ 4.74 | ≤ 10.7 | – |
| Cn1ncc2c(N3CCN(c4ccc(Cl)c(Cl)c4)CC3)ncnc21 | – | – | – | – | – | 0.13 (≈ 0.358 µM) |
| CCOCCNC(=O)c1cccc(-c2cc(F)ccc2OC)c1 | 0.525 | – | – | 130 | 819 | – |
